The source of these data is BindingDB's records for doi:10.1111/j.1747-0285.2012.01328.x (Technical University of LÓDz, 2012).

Broadly, the IC50 is the concentration that inhibits the measured activity by half. A low value points to inhibition by little substance. A word on the Ki: it is the equilibrium dissociation constant of an inhibitor or competing ligand from its target. Low values mean a stronger hold on the target, high ones a looser hold on the target.

The assay concerns the target HIV-1 protease (Human immunodeficiency virus, UniProt O90785). Nature of the assay: Fluorometric Assay. The text has this: The Ki value were determine by a fluorometric assay with the fluorogenic and chromogenic substrate.

Chain of HIV-1 protease (O90785 whole entry): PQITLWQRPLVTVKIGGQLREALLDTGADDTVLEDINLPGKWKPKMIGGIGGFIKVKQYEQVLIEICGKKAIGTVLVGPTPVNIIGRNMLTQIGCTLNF

With `Cc1ccccc1C(=O)N[C@@H](Cc1ccccc1)C[C@H](O)[C@H](Cc1ccccc1)NC(=O)c1ccccc1C` [3-Hexanol derivative, 2], the IC50 is 3 nM and the affinity, expressed as Ki, was 4.8 nM.

Molecule `Cc1c(O)cccc1C(=O)N[C@@H](Cc1ccccc1)[C@@H](O)C[C@H](Cc1ccccc1)NC(=O)c1ccccc1` [3-Hexanol derivative, 1] registered an IC50 of 1 nM and an inhibition constant Ki of 4.6 nM.

`CC(C)[C@@H](C(=O)N[C@@H](Cc1ccccc1)[C@@H](O)C[C@H](Cc1ccccc1)NC(=O)OC(C)(C)C)N(C)C(=O)OCc1ccccn1` [3-Hexanol derivative, 4] yielded a 50% inhibitory concentration (IC50) of 0.17 nM and a Ki of 0.021 nM.

Molecule `Cc1c(O)cccc1C(=O)N[C@@H](Cc1ccccc1)[C@@H](O)C[C@H](Cc1ccccc1)NC(=O)OC1CCOC1` (stereo partly drawn) [3-Hexanol derivative, 3] displayed an IC50 of 0.63 nM and a Ki of 0.32 nM.
